Laboratory results published in the PolyMetriX glass transition set.

Structure (SMILES) | glass transition temperature [°C]
*C(=O)Nc1ccc(/N=N/c2ccc([N+](=O)[O-])cc2)c(NC(=O)c2ccc3c(c2)C(=O)N(c2c(C)cc(-c4cc(C)c(N5C(=O)c6ccc(*)cc6C5=O)c(C)c4)cc2C)C3=O)c1 (repeat unit) | 278.00
*C(=O)Nc1ccc(C(c2ccc(NC(=O)c3ccc4c(c3)C(=O)N(c3c(C)cc(-c5cc(C)c(N6C(=O)c7ccc(*)cc7C6=O)c(C)c5)cc3C)C4=O)cc2)(C(F)(F)F)C(F)(F)F)cc1 (repeat unit) | 318.00
*C(=O)Nc1ccc(Oc2c(C)cc(C(C)(C)c3cc(C)c(Oc4ccc(NC(=O)c5ccc6c(c5)C(=O)N(c5ccc(Oc7ccc(C8(c9ccc(Oc%10ccc(N%11C(=O)c%12ccc(*)cc%12C%11=O)cc%10)cc9)CC9CC8C8CCCC98)cc7)cc5)C6=O)cc4)c(C)c3)cc2C)cc1 (repeat unit) | 276.00
*C(=O)Oc1c(C)cc(C(c2cc(C)c(OC(=O)c3ccc4c(c3)C(=O)N(c3c(C)cc(-c5cc(C)c(N6C(=O)c7ccc(*)cc7C6=O)c(C)c5)cc3C)C4=O)c(C)c2)(C(F)(F)F)C(F)(F)F)cc1C (repeat unit) | 327.00
*C(=O)Oc1ccc(C(c2ccc(OC(=O)c3ccc4c(c3)C(=O)N(c3c(C)cc(-c5cc(C)c(N6C(=O)c7ccc(*)cc7C6=O)c(C)c5)cc3C)C4=O)cc2)(C(F)(F)F)C(F)(F)F)cc1 (repeat unit) | 335.00
*C(=O)c1ccc(Oc2ccc(Oc3ccc(C(=O)c4ccc5c(c4)C(=O)N(c4ccc(N6C(=O)c7ccc(*)cc7C6=O)cc4)C5=O)cc3)cc2)cc1 (repeat unit) | 236.00
*C(=O)c1ccc2c(c1)C(=O)N(c1cc(Oc3c(C)cc(-c4cc(C)c(Oc5cc(N6C(=O)c7ccc(*)cc7C6=O)cc(C(F)(F)F)c5)c(C)c4)cc3C)cc(C(F)(F)F)c1)C2=O (repeat unit) | 265.40
*C(=O)c1ccc2c(c1)C(=O)N(c1ccc(Cc3ccc(Cc4cccc(N5C(=O)c6ccc(*)cc6C5=O)c4)cc3)cc1)C2=O (repeat unit) | 317.00
*C(=O)c1ccc2c(c1)C(=O)N(c1ccc(Cc3cccc(N4C(=O)c5ccc(*)cc5C4=O)c3)cc1)C2=O (repeat unit) | 281.00
*C(=O)c1ccc2c(c1)C(=O)N(c1ccc(Cc3ccccc3N3C(=O)c4ccc(*)cc4C3=O)cc1)C2=O (repeat unit) | 290.00
*CC(F)(F)/C(F)=C(/*)Cl (repeat unit) | -17.00
*CC(O)COc1c(C)cc(C(C)(C)c2cc(C)c(OCC(O)COc3c(C)cc(S(=O)(=O)c4cc(C)c(O*)c(C)c4)cc3C)c(C)c2)cc1C (repeat unit) | 145.00
*CC(O)COc1c(C)cc(C(C)(C)c2cc(C)c(OCC(O)COc3ccc(S(=O)(=O)c4ccc(O*)cc4)cc3)c(C)c2)cc1C (repeat unit) | 145.00
*CC(O)COc1ccc(C(C)(C)c2ccc(OCC(O)COc3c(C)cc(C(C)(C)c4cc(C)c(O*)c(C)c4)cc3C)cc2)cc1 (repeat unit) | 100.00
*CC(O)COc1ccc(S(=O)(=O)c2ccc(OCC(O)COc3c(C)cc(S(=O)(=O)c4cc(C)c(O*)c(C)c4)cc3C)cc2)cc1 (repeat unit) | 145.00
*CC/C(=C(/*)c1ccccc1)c1ccccc1 (repeat unit) | 120.50
*OC(COC(=O)c1ccc(-c2cc(CCCCCCCC)c(-c3ccc(C(*)=O)c(F)c3F)cc2CCCCCCCC)c(F)c1F)COc1ccc(/N=N/c2ccc(C#N)cc2)cc1 (repeat unit) | 61.00
*OS(=O)(=O)c1cc(C)c(*)c(C)c1 (repeat unit) | 153.00
*O[Si](C)(C)CC[Si](C)(C)Oc1c(C)cc(-c2cc(C)c(*)c(C)c2)cc1C (repeat unit) | 55.00
*O[Si](C)(C)O[Si](C)(C)O[Si](C)(C)Oc1c(C)cc(-c2cc(C)c(*)c(C)c2)cc1C (repeat unit) | 14.00
*Oc1c(C)cc(-c2cc(C)c(OC(=O)CCCCCCCCC(*)=O)c(C)c2)cc1C (repeat unit) | 57.00
*Oc1c(C)cc(-c2cc(C)c(Oc3ccc(C(=O)c4ccc(*)cc4)cc3)c(C)c2)cc1C (repeat unit) | 246.63
*Oc1c(C)cc(C(C)(C)c2cc(C)c(OC(=O)CCCCCCCCC(*)=O)c(C)c2)cc1C (repeat unit) | 45.00
*Oc1c(C)cc(C(C)(C)c2cc(C)c(OC(=O)c3cccc(C(*)=O)c3)c(C)c2)cc1C (repeat unit) | 187.00
*Oc1c(Cl)cc(C(C)(C)c2cc(Cl)c(OC(=O)c3ccc(OCCCCCCCCCCOc4ccc(C(*)=O)cc4)cc3)c(Cl)c2)cc1Cl (repeat unit) | 140.00
*Oc1cc(C(C)(C)C)c(Oc2ccc(C(=O)Nc3c(C)cc(C(C)(C)c4cc(C)c(NC(=O)c5ccc(*)cc5)c(C)c4)cc3C)cc2)cc1C(C)(C)C (repeat unit) | 295.00
*Oc1ccc(S(=O)(=O)c2ccc(Oc3c(C)cc(-c4cc(C)c(*)c(C)c4)cc3C)cc2)cc1 (repeat unit) | 280.20

Structure (SMILES) | glass transition temperature [°C]
*Oc1ccc(S(=O)(=O)c2cccc3c(S(=O)(=O)c4ccc(Oc5c(C)cc(-c6cc(C)c(*)c(C)c6)cc5C)cc4)cccc23)cc1 (repeat unit) | 262.00
*c1c(C)cc(-c2cc(C)c(N3C(=O)c4ccc(-c5ccc6c(c5)C(=O)N(*)C6=O)cc4C3=O)c(C)c2)cc1C (repeat unit) | 285.00
*c1c(C)cc(-c2cc(C)c(N3C(=O)c4ccc(S(=O)(=O)c5ccc6c(c5)C(=O)N(*)C6=O)cc4C3=O)c(C)c2)cc1C (repeat unit) | 290.00
*c1c(C)cc(C(C)(C)c2cc(C)c(S(*)(=O)=O)c(C)c2)cc1C (repeat unit) | 230.00
*c1c(C)cc(C(c2cccnc2)c2cc(C)c(N3C(=O)CC(Nc4cccc(NC5CC(=O)N(*)C5=O)c4)C3=O)c(C)c2)cc1C (repeat unit) | 224.00
*c1cc(C)c(*)s1 (repeat unit) | 114.20
*c1cc(C)c(Oc2ccc(S(=O)(=O)c3ccc(Oc4cc(C)c(C5(*)OC(=O)c6ccccc65)cc4C)cc3)cc2)cc1C (repeat unit) | 269.00
*c1cc(CCCCCCOC(=O)COc2ccccc2)c(*)s1 (repeat unit) | 50.00
*c1cc(CCOC(=O)C(C)Br)c(*)s1 (repeat unit) | 49.00
*c1cc(CCOC(=O)NCCCC)c(*)s1 (repeat unit) | 67.50
*c1cc(CCOCCOC)c(*)[nH]1 (repeat unit) | -43.00
*c1cc(OCCCC)cc(N2C(=O)c3ccc(Oc4ccc5c(c4)C(=O)N(*)C5=O)cc3C2=O)c1 (repeat unit) | 237.00
*c1cc(OCCCCCCCC)cc(N2C(=O)c3ccc(Oc4ccc5c(c4)C(=O)N(*)C5=O)cc3C2=O)c1 (repeat unit) | 185.00
*c1ccc(-c2ccc(N3C(=O)c4ccc(Oc5c(C)cc(C(C)(C)c6cc(C)c(Oc7ccc8c(c7)C(=O)N(*)C8=O)c(C)c6)cc5C)cc4C3=O)cc2C(F)(F)F)c(C(F)(F)F)c1 (repeat unit) | 262.00
*c1ccc(C(=O)Oc2c(C)cc(C(c3cccnc3)c3cc(C)c(OC(=O)c4ccc(N5C(=O)CC(Nc6ccc(Cc7ccc(NC8CC(=O)N(*)C8=O)cc7)cc6)C5=O)cc4)c(C)c3)cc2C)cc1 (repeat unit) | 186.00
*c1ccc(Oc2c(C)cc(C(C)(C)c3cc(C)c(Oc4ccc(N5C(=O)c6ccc(Oc7ccc(C8(c9ccc(Oc%10ccc%11c(c%10)C(=O)N(*)C%11=O)cc9)CCC(c9ccccc9)CC8)cc7)cc6C5=O)cc4)c(C)c3)cc2C)cc1 (repeat unit) | 232.00
*c1ccc(Oc2c(C)cc(C(c3cccnc3)c3cc(C)c(Oc4ccc(N5C(=O)CC(Nc6ccc(Cc7ccc(NC8CC(=O)N(*)C8=O)cc7)cc6)C5=O)cc4)c(C)c3)cc2C)cc1 (repeat unit) | 201.00
*c1ccc(Oc2ccc(-c3ccc(Oc4ccc(N5C(=O)c6cccc(Oc7c(C)cc(-c8cc(C)c(Oc9cccc%10c9C(=O)N(*)C%10=O)c(C)c8)cc7C)c6C5=O)cc4)cc3)cc2)cc1 (repeat unit) | 290.00
*c1ccc(Oc2ccc(C3(c4ccc(Oc5ccc(N6C(=O)c7ccc(Oc8c(C)cc(C(C)(C)c9cc(C)c(Oc%10ccc%11c(c%10)C(=O)N(*)C%11=O)c(C)c9)cc8C)cc7C6=O)cc5)cc4)CC4CC3C3CCCC43)cc2)cc1 (repeat unit) | 262.00
*c1ccc2c(c1)C(=O)N(c1c(C)cc(-c3cc(C)c(N4C(=O)c5ccc(C(*)(C(F)(F)F)C(F)(F)F)cc5C4=O)c4ccccc34)c3ccccc13)C2=O (repeat unit) | 403.00
*c1ccc2c(c1)C(=O)N(c1c(C)cc(C3(c4cc(C)c(N5C(=O)c6ccc(C(*)(C(F)(F)F)C(F)(F)F)cc6C5=O)c(C)c4)c4ccccc4-c4ccccc43)cc1C)C2=O (repeat unit) | 361.00
*c1ccc2c(c1)C(=O)N(c1cc(OCCCC)cc(N3C(=O)c4ccc(C(*)(C(F)(F)F)C(F)(F)F)cc4C3=O)c1)C2=O (repeat unit) | 246.00
*c1ccc2c(c1)C(=O)N(c1cc(OCCCCCCCC)cc(N3C(=O)c4ccc(C(*)(C(F)(F)F)C(F)(F)F)cc4C3=O)c1)C2=O (repeat unit) | 195.00
*c1ccc2c(c1)C(=O)N(c1cc(OCCCCCCCCCCCCCCCC)cc(N3C(=O)c4ccc(C(*)(C(F)(F)F)C(F)(F)F)cc4C3=O)c1)C2=O (repeat unit) | 161.00
*c1ccc2c(c1)C(=O)N(c1cc(OCCN(CC)c3ccc(/N=N/c4ccc([N+](=O)[O-])cc4)cc3)cc(N3C(=O)c4ccc(C(*)(C(F)(F)F)C(F)(F)F)cc4C3=O)c1)C2=O (repeat unit) | 210.00
*c1ccc2c(c1)C(=O)N(c1cc(Oc3c(C)cc(-c4cc(C)c(Oc5cc(N6C(=O)c7ccc(C(*)(C(F)(F)F)C(F)(F)F)cc7C6=O)cc(C(F)(F)F)c5)c(C)c4)cc3C)cc(C(F)(F)F)c1)C2=O (repeat unit) | 264.80
